Experimental findings from ChEMBL document CHEMBL5321237 (Eur J Med Chem, 2023) are described below.

Series [1] has as its target T1, Macrophage colony-stimulating factor 1 receptor (Mus musculus) (UniProt P09581).
T1 sequence (whole entry): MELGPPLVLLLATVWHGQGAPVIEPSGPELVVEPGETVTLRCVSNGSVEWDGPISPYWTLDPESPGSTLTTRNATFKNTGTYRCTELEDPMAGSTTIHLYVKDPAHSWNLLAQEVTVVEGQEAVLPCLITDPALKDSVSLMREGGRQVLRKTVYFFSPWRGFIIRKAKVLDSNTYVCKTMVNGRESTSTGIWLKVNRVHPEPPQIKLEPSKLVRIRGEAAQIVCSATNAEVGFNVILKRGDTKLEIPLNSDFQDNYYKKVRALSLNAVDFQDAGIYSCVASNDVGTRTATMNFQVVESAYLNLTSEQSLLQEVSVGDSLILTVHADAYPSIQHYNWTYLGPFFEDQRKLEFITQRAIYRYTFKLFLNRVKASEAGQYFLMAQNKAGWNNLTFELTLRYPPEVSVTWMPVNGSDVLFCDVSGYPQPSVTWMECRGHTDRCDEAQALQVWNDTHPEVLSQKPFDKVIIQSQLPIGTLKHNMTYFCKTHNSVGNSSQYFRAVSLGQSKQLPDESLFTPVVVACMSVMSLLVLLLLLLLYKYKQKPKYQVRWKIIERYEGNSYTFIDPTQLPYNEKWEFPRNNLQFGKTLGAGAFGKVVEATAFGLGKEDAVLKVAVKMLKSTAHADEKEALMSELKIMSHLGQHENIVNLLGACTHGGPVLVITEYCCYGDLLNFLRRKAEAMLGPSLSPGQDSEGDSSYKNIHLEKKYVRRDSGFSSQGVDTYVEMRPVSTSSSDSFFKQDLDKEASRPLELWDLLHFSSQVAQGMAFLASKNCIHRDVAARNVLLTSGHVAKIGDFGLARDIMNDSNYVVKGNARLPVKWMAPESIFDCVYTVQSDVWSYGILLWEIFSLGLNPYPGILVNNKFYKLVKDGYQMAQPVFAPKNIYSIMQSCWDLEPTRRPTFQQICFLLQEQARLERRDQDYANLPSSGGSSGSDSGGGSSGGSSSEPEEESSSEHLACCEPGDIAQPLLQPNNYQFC
Put plainly: Inhibition of CSF1-induced CSF1R signalling in mouse BMDM cells assessed as reduction in ERK1/2 phosphorylation by measuring fold change preincubated for 30 mins followed by CSF1 addition and measured after 10 mins relative to pexidartinib. In kind it is cell-based. The conditions noted are these: time 40.0 min.

The target of series [2] is T2, Macrophage colony-stimulating factor 1 receptor (Homo sapiens, UniProt P07333). Put plainly: Binding affinity to non-autoinhibited form of CSF1R (unknown origin) assessed as dissociation constant incubated for 1 hr by qPCR based Hill equation analysis.
The target of series [3] is T2, Macrophage colony-stimulating factor 1 receptor. Nature of the series: Binding affinity to autoinhibited form of CSF1R (unknown origin) assessed as dissociation constant incubated for 1 hr by qPCR based Hill equation analysis. (In qPCR the cycle at which signal appears reflects the starting amount.)
Series [4] can be described thus: Metabolic stability in mouse liver microsomes assessed as intrinsic clearance at 3 uM measured upto 50 mins by LC-MS analysis. The series is classed as ADME, Microsome. For orientation: Microsomes from liver hold many membrane-bound enzymes, among them those of drug oxidation.
For series [5], the target named is Platelet-derived growth factor receptor alpha (Homo sapiens) (UniProt P16234). Nature of the series: Inhibition of human PDGFRalpha binding to streptavidin-coated magnetic beads immobilized biotinylated ligand at 500 nM incubated for 1 hr by qPCR analysis relative to control.
Series [6] in a line: Metabolic stability in human liver microsomes assessed as intrinsic clearance at 3 uM measured upto 50 mins by LC-MS analysis. In kind it is ADME, Microsome.
Series [7] has as its target T2, Macrophage colony-stimulating factor 1 receptor. Nature of the series: Inhibition of CSF1R (unknown origin) using FRET-peptide as substrate incubated in presence of ATP by FRET based Z-LYTE assay.
Series [8] deals with T3, Macrophage colony-stimulating factor 1 receptor (Mus musculus, UniProt P09581).
T3 sequence (P09581 whole entry): T1 sequence (whole entry)
Nature of the series: Inhibition of CSF1-induced CSF1R signalling in mouse BMDM cells assessed as reduction in ERK1/2 phosphorylation preincubated for 30 mins followed by CSF1 addition and measured after 10 mins. The series is classed as cell-based.

Series [9] addresses Receptor-type tyrosine-protein kinase FLT3 (Homo sapiens) (UniProt P36888). Nature of the series: Inhibition of autoinhibited human FLT3 binding to streptavidin-coated magnetic beads immobilized biotinylated ligand at 500 nM incubated for 1 hr by qPCR analysis relative to control.

As a reminder, the Kd is the free concentration of one partner at which half of the binding sites on the other are occupied at equilibrium, for simple one-to-one binding. The term inhibition denotes the percentage by which the read-out fell short of the control. As a reminder, the IC50 is the concentration at which inhibition is half-maximal.

T2 sequence (P07333 whole entry): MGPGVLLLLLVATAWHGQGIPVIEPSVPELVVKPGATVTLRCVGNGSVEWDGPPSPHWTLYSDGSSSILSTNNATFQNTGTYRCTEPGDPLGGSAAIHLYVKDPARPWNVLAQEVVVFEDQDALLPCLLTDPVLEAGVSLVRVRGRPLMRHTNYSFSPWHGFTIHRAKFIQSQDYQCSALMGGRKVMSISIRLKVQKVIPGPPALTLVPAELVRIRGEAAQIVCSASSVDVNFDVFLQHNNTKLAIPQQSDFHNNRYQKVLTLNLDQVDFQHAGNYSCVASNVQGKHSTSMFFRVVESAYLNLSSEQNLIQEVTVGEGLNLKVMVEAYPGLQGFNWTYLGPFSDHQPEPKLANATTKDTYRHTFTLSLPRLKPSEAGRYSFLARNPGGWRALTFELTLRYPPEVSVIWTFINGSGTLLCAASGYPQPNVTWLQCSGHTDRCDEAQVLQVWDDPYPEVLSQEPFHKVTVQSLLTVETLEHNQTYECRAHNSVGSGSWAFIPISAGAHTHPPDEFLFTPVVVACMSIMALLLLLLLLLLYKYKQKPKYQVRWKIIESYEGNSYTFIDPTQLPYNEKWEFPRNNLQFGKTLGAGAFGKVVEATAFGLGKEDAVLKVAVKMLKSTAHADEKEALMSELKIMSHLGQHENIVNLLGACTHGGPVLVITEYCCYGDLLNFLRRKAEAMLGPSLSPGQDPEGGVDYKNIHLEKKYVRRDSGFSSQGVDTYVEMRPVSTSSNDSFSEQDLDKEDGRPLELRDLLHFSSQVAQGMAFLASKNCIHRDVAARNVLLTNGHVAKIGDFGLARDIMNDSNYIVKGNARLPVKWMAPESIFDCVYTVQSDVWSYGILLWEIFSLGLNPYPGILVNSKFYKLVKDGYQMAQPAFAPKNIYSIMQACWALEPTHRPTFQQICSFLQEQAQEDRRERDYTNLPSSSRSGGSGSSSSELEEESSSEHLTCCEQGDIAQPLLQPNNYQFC
Chain of Platelet-derived growth factor receptor alpha (Homo sapiens) (P16234 whole entry): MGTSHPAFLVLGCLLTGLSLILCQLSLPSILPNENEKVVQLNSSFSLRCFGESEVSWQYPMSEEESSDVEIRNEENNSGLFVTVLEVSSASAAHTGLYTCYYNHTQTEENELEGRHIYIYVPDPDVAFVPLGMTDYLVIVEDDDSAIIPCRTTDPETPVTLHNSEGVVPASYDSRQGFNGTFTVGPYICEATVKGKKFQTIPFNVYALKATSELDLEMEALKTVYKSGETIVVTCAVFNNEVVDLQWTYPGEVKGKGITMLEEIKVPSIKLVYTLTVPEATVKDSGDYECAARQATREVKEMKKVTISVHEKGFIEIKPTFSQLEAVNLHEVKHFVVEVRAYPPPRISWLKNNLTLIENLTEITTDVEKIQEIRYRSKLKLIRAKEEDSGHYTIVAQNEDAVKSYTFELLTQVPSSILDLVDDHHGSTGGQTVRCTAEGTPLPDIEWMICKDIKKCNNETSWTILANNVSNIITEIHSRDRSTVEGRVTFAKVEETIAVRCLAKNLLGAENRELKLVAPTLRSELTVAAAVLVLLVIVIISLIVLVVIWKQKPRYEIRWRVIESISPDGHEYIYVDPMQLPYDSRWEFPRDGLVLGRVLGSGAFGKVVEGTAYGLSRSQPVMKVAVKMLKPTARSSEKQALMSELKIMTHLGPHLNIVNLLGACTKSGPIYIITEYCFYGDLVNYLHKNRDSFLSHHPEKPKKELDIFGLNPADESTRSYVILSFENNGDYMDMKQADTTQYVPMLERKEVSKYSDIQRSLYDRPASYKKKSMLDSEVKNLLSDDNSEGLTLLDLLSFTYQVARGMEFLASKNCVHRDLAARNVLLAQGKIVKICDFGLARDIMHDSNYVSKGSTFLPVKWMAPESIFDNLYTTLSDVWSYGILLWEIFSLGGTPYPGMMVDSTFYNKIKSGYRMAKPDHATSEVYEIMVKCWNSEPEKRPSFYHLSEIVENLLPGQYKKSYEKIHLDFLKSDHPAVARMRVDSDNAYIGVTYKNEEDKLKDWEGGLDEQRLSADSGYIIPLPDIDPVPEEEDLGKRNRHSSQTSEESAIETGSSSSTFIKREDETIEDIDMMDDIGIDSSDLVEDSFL
Chain of Receptor-type tyrosine-protein kinase FLT3 (Homo sapiens) (P36888 whole entry): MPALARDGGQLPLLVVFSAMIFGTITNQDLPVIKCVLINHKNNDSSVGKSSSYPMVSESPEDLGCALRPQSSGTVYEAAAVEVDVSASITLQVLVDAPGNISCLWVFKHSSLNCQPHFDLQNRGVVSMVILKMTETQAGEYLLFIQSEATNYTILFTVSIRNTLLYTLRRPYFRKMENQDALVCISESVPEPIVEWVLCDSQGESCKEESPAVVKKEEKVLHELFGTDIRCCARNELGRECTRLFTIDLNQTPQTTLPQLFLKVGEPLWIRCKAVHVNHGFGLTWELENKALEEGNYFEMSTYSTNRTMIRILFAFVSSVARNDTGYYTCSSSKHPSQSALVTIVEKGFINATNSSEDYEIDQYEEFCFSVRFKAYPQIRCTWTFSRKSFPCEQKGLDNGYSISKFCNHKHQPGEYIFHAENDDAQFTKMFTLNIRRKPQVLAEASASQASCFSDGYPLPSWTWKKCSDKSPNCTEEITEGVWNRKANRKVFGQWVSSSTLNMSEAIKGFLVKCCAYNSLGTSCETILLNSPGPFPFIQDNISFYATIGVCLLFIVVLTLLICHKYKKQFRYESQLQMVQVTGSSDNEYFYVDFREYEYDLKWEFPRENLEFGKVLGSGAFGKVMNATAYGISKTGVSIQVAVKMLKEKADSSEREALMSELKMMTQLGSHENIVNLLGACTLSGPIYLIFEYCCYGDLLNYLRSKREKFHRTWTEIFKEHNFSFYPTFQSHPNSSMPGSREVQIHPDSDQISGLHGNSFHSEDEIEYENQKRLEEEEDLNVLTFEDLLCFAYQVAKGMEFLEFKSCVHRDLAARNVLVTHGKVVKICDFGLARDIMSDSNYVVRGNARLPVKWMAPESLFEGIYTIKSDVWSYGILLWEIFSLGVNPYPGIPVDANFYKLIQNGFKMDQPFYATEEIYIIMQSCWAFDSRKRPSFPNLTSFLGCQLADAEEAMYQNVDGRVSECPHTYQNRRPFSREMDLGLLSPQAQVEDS

As for `CN(CC1CCCC1)c1ncnc2[nH]c(-c3ccc(CO)cc3)nc12`, the fold change (FC) in [1] came to 0.4. Besides, the figures for the Kd in [2] and in series [3] were 220 nM and 17 nM, respectively. Moreover, the CLint in series [4] was determined as 243 µL/min/mg; in series [6], 36.4 µL/min/mg. For the same molecule, the inhibition in series [5] and in series [9] was 12% throughout. In addition, the half-maximal inhibitory concentration (IC50) in [7] is 0.5 nM; in [8] it was 40 nM.
